Numbered stars: 1 amine (or outer) side, 2 acyl side, 3 side chain; on linkers, the order of the positions; unused ones are H or OH. Side chains are listed from the residue outwards. Peptide text beside a SMILES is read from it. * marks the point of attachment. γGlu = O=C(O)[C@H](CCC(=O)[*:2])N[*:1]; Palmitoyl = CCCCCCCCCCCCCCCC(=O)*
What was measured:
Assay type in all cases: cell-based, human
[1] = tested on: ERK-CREB signaling pathway in SH-SY5Y cells; assay: Western blotting of ERK-CREB signaling pathway after 8 min incubation; conditions: 1 × 10^−5 M, 37 °C, vs control cells (medium alone), normalized to GAPDH, n = 3, triplicates
Protocol: Figure 2 PrRP31 and palm^11-PrRP31 increased phosphorylation of extracellular signal-regulated kinase/cAMP response element-binding protein (ERK-CREB) signaling pathway in SH-SY5Y cells. Immunoblots: (a) and their quantifications: (b). SH-SY5Y cells were incubated either with PrRP31 and its palmitoylated analog and scrambled at a final concentration 1 × 10^−5 M, or with insulin at the final concentration 1 × 10^−7 M at 37 °C for 8 min, or medium alone. Activation was expressed as the ratio of the activated protein to the total amount of the protein, both normalized to loading control, GAPDH. Data are presented as the means ± SEM as a percentage of control cells treated with medium alone analyzed by one-way ANOVA followed by the Dunnett post hoc test, * p < 0.5, ** p < 0.01, **** p < 0.0001 (n = 3, each sample in triplicates).
(§1) For the investigation of the molecular mechanism of PrRP31 and its analog in the cells, signaling pathways were studied by Western blotting (WB). The cells were cultured in 6-well plates at a density of 800,000 cells per well. Growth medium was exchanged for serum-free DMEM 16 h before an experiment, and then, the cells were incubated with PrRP31, palm^11-PrRP31, or scrambled peptide at a final concentration of 1 × 10^−5 M or insulin at a concentration of 1 × 10^−7 M at 37 °C for 8 min. The cells were rapidly cooled on ice and lysed in 400 µl of Laemmli sample buffer (62.5 mM Tris-HCl with pH 6.8, 2% SDS, 10% glycerol, 0.01% bromophenol blue, 5% mercaptoethanol, 50 mM NaF, and 1 mM Na3VO4) and stored at −20 °C. Afterward, the cell lysates were analyzed by WB. SDS-electrophoresis and WB were carried out using a Criterion system with a 26-well 4−15% Criterion^TM TGX^TM Precast Midi Protein Gel (Bio-Rad, Hercules, CA, USA) at a constant voltage of 200 V or 100 V, respectively.
(§2) Subsequently, the membranes were incubated overnight with primary antibody (Ab) at 4 °C, according to the manufacturer´s instructions (Table 2). The next day, the membranes were incubated with an HRP-linked secondary antibody for 1 h at room temperature. Chemiluminescence was visualized with a ChemiDoc^TM System (Bio-Rad). Band intensities were normalized using glyceraldehyde 3-phosphate dehydrogenase (GAPDH) as an internal loading control.
Eight minutes of incubation was performed in a series of experiments with different exposure times (5, 10, 15, 30, and 60 min) to PrRP31 and its palmitoylated analog. Activation of analogs was strongest after 10 min. Then, the cells were treated with inhibitors of signaling pathways for 2 min, and analogs were added for 8 min. […] Activation is expressed as the ratio of the activated protein to the total amount of the protein. […]

SH-SY5Y cells = assay: Treatment with peptides after 16 h exposure to MG, MTT cell viability; conditions: 1.2 mM MG 16 h, then 4 h treatment 1 × 10^−5 M, n = 3, octuplicates
Protocol: Treatment for 4 h with PrRP31 and palm^11-PrRP31 at a concentration of: (a) 1 × 10^−5 M; after exposure to 1.2 mM MG for 16 h in SH-SY5Y cells. Treatment for 4 h with PrRP31 and palm^11-PrRP31 at a concentration of: (b) 1 × 10^−5 M; (c) 1 × 10^−7 M, after exposure to 0.6 mM MG for 16 h in SH-SY5Y cells. MG toxicity measured with MTT assay. Data are presented as the means ± SEM as a percentage of control cells treated with vehicle analyzed by a Student´s t-test vs. 0.6 mM MG ## p < 0.01, ### p < 0.001, #### p < 0.0001 (n = 3, each sample in octuplicates). Control vs. 0.6 mM MG analyzed by a Student´s t-test, * p < 0.5, ** p < 0.01.
The MTT test was used to measure cell viability. The MTT reagent was dissolved in RPMI-1640 without phenol red. Cells were incubated for 2 h with a 10% solution of MTT at 37 °C. Living cells converted soluble MTT to insoluble formazan, which was subsequently dissolved in DMSO. The absorbance was measured at a wavelength of 560 nm.
For this assay, cells were cultured in 96-well plates at a density of 40,000 cells per well. The growth medium was exchanged for serum-free DMEM 16 h before the experiment. First, the cells were pretreated with 1 × 10^−5 M or 1 × 10^−7 M PrRP31 or palm^11-PrRP31 (in octuplicates) for 4 h to prevent MG cytotoxic effects; then, MG was added to a final concentration of 0.6 mM or 1.2 mM. The cells were incubated at 37 °C for 16 h. […]

[2] = tested on: p-c-Jun, p-ERK, p-Bad, Bax/Bcl-2 in SH-SY5Y cells; assay: Western blotting of anti-apoptotic signaling in MG-stressed cells; conditions: 4 h pretreatment 1 × 10^−5 M, then 0.6 mM MG 16 h, vs MG, triplicates; for decrease of the MG-increased level of p-Bad (Ser112)/Bad / decrease of the MG-increased level of p-Bad (Ser136)/Bad / decrease of the MG-increased level of p-c-Jun (Ser73)/c-Jun: normalized to GAPDH
Protocol: Figure 7 PrRP31 and palm^11-PrRP31 affected anti-apoptotic signaling in SH-SY5Y cells. Immunoblots: (a) and their quantifications: (b). SH-SY5Y cells were pretreated with PrRP31 and palm^11-PrRP31 at a concentration of 1 × 10^−5 M for 4 h and then stressed with 0.6 mM MG for 16 h. Activation was expressed as the ratio of the activated protein to the total amount of the protein, both normalized to loading control, GAPDH. Data are presented as the means ± SEM as a percentage of control cells treated with medium alone. Analysis is made vs. MG by a Student’s t-test, * p < 0.5, ** p < 0.01 (each sample in triplicates).
as §1, §2
For analysis of the molecular mechanism during MG stress, the growth medium was exchanged for serum-free DMEM 16 h before the experiment. The cells were pretreated with 1 × 10^−5 M PrRP31 or palm^11-PrRP31 for 4 h; then, MG was added to a final concentration of 0.6 mM, and the cells were incubated at 37 °C for 16 h. The controls and compounds were tested in triplicate.

CC[C@H](C)[C@H](NC(=O)CNC(=O)[C@H](CCCNC(=N)N)NC(=O)[C@H](CO)NC(=O)[C@H](C)NC(=O)[C@H](Cc1ccc(O)cc1)NC(=O)[C@H](Cc1c[nH]c2ccccc12)NC(=O)[C@H](C)NC(=O)[C@@H]1CCCN1C(=O)[C@H](CC(N)=O)NC(=O)[C@@H](NC(=O)[C@H](CC(=O)O)NC(=O)[C@@H]1CCCN1C(=O)[C@@H](NC(=O)[C@H](CCCNC(=N)N)NC(=O)[C@@H](NC(=O)[C@H](CCC(=O)O)NC(=O)[C@H](CCSC)NC(=O)[C@H](CO)NC(=O)[C@H](Cc1c[nH]cn1)NC(=O)[C@H](CCCNC(=N)N)NC(=O)[C@H](Cc1c[nH]cn1)NC(=O)[C@@H](NC(=O)[C@H](CCCNC(=N)N)NC(=O)[C@@H](N)CO)[C@@H](C)O)[C@@H](C)CC)[C@@H](C)O)[C@@H](C)CC)C(=O)N[C@@H](CCCNC(=N)N)C(=O)N1CCC[C@H]1C(=O)N[C@H](C(=O)NCC(=O)N[C@@H](CCCNC(=N)N)C(=O)N[C@@H](Cc1ccccc1)C(N)=O)C(C)C [PrRP31]
increase of p-CREB (Ser133)/CREB [1]: 68% | increase of p-ERK (Thr 202/Tyr204)/ERK [1]: 36% | change of cell viability compared to cells administered with 1.2 mM MG (SH-SY5Y cells): nonsignificant increase | decrease of the MG-increased level of p-Bad (Ser112)/Bad [2]: tended to decrease | decrease of the MG-increased level of p-Bad (Ser136)/Bad [2]: tended to decrease | decrease of the MG-increased level of p-c-Jun (Ser73)/c-Jun [2]: tended to decrease

CCCCCCCCCCCCCCCC(=O)N[C@@H](CCC(=O)NCCCC[C@H](NC(=O)[C@@H](NC(=O)[C@H](CCC(=O)O)NC(=O)[C@H](CCSC)NC(=O)[C@H](CO)NC(=O)[C@H](Cc1c[nH]cn1)NC(=O)[C@H](CCCNC(=N)N)NC(=O)[C@H](Cc1c[nH]cn1)NC(=O)[C@@H](NC(=O)[C@H](CCCNC(=N)N)NC(=O)[C@@H](N)CO)[C@@H](C)O)[C@@H](C)CC)C(=O)N[C@H](C(=O)N1CCC[C@H]1C(=O)N[C@@H](CC(=O)O)C(=O)N[C@H](C(=O)N[C@@H](CC(N)=O)C(=O)N1CCC[C@H]1C(=O)N[C@@H](C)C(=O)N[C@@H](Cc1c[nH]c2ccccc12)C(=O)N[C@@H](Cc1ccc(O)cc1)C(=O)N[C@@H](C)C(=O)N[C@@H](CO)C(=O)N[C@@H](CCCNC(=N)N)C(=O)NCC(=O)N[C@H](C(=O)N[C@@H](CCCNC(=N)N)C(=O)N1CCC[C@H]1C(=O)N[C@H](C(=O)NCC(=O)N[C@@H](CCCNC(=N)N)C(=O)N[C@@H](Cc1ccccc1)C(N)=O)C(C)C)[C@@H](C)CC)[C@@H](C)CC)[C@@H](C)O)C(=O)O [palm^11-PrRP31] (H-SRTHRHSMEIK([γGlu-Palmitoyl])TPDINPAWYASRGIRPVGRF-NH2; N-terminus assumed)
increase of p-CREB (Ser133)/CREB [1]: 238% | increase of p-ERK (Thr 202/Tyr204)/ERK [1]: 74% | change of cell viability compared to cells administered with 1.2 mM MG (SH-SY5Y cells): nonsignificant increase | decrease of the MG-increased level of p-Bad (Ser112)/Bad [2]: 46% | decrease of the MG-increased level of p-Bad (Ser136)/Bad [2]: 52% | decrease of the MG-increased level of p-c-Jun (Ser73)/c-Jun [2]: 37% | attenuation of the MG-increased ratio of Bax/Bcl−2 [2]: 38%

Reference: PMC7503370, “Cellular Signaling and Anti-Apoptotic Effects of Prolactin-Releasing Peptide and Its Analog on SH-SY5Y Cells” (International Journal of Molecular Sciences, 2020)
